According to patent EP0814162A2 (priority 1996, dated 1997):

Columns and labels:
[1] = tested on: hla-lacZ fusion; test: β-galactosidase chemiluminescent reporter assay of the chromosomal hla-lacZ fusion (hla expression); format: cell-based, S. aureus Wood 46-3; details: for influence on hla expression (in words): subinhibitory concentrations of antibiotics
[2] = tested on: hla mRNA; test: Northern blot analysis with intragenic hla probe; details: 0.5 µg/ml methicillin versus without antibiotic
[3] = tested on: α-toxin; details: in vitro; cited from earlier work
[4] = mouse model; cited from earlier work

Structure (SMILES)	influence on hla expression (in words) [1]	further results
COc1cc(Cc2cnc(N)nc2N)cc(OC)c1OC [Trimethoprim]	weak stimulatary effect	–
COc1cccc(OC)c1C(=O)N[C@@H]1C(=O)N2[C@@H]1SC(C)(C)[C@@H]2C(=O)O [Methicillin]	dramatically increased	amount of hla mRNA detected by Northern hybridization [2]: greater amount of hla mRNA; increase of the β-galactosidase activity compared to medium without antibiotic ([1]; quarter of the MIC, postexponential phase): sixfold increase
C[C@@H]1O[C@@H]1P(=O)(O)O [Fosfomycin]	weak stimulatary effect	–
CC[C@H]1OC(=O)[C@H](C)[C@@H](O[C@H]2C[C@@](C)(OC)[C@@H](O)[C@H](C)O2)[C@H](C)[C@@H](O[C@@H]2O[C@H](C)C[C@H](N(C)C)[C@H]2O)[C@](C)(O)C[C@@H](C)C(=O)[C@H](C)[C@@H](O)[C@]1(C)O [Erythromycin]	repressed	–
[Cl-].[Na+] [NaCl, sodium chloride]	–	β-galactosidase production ([1]; 0.8 M NaCl in LB broth, postexponential): 7800 RLU; effect on hla expression (in words) ([1]; NaCl above 1.6 M): inhibitory
CCOc1ccc2ccccc2c1C(=O)N[C@@H]1C(=O)N2[C@@H]1SC(C)(C)[C@@H]2C(=O)O [nafcillin]	–	α-toxin production [3]: induces; lethal activity of broth filtrates [4]: increases
CN[C@H](CC(C)C)C(=O)N[C@H]1C(=O)N[C@@H](CC(N)=O)C(=O)N[C@H]2C(=O)N[C@H]3C(=O)N[C@H](C(=O)N[C@H](C(=O)O)c4cc(O)cc(O)c4-c4cc3ccc4O)[C@H](O)c3ccc(c(Cl)c3)Oc3cc2cc(c3O[C@@H]2O[C@H](CO)[C@@H](O)[C@H](O)[C@H]2O[C@H]2C[C@](C)(N)[C@H](O)[C@H](C)O2)Oc2ccc(cc2Cl)[C@H]1O [Vancomycin]	weak stimulatary effect	–
Cc1onc(-c2ccccc2)c1C(=O)N[C@@H]1C(=O)N2[C@@H]1SC(C)(C)[C@@H]2C(=O)O [Oxacillin]	dramatically increased	–
